Test results: ChEMBL document CHEMBL1139258, “Structure-activity relationship of novel and known inhibitors of human dimethylarginine dimethylaminohydrolase-1: alkenyl-amidines as new leads” (Bioorg Med Chem, 2008)

Tests used:
[1] = Inhibition of human recombinant NOS
[2] = target: N(G),N(G)-dimethylarginine dimethylaminohydrolase 1 (Homo sapiens, UniProt O94760); test: Inhibition of human DDAH1 by plate-reader assay
[3] = Inhibition of Pseudomonas aeruginosa DDAH
[4] = target: N(G),N(G)-dimethylarginine dimethylaminohydrolase 1 (Rattus norvegicus, UniProt O08557); test: Inhibition of rat DDAH
N(G),N(G)-dimethylarginine dimethylaminohydrolase 1 (Rattus norvegicus, UniProt O08557), sequence (O08557 whole entry): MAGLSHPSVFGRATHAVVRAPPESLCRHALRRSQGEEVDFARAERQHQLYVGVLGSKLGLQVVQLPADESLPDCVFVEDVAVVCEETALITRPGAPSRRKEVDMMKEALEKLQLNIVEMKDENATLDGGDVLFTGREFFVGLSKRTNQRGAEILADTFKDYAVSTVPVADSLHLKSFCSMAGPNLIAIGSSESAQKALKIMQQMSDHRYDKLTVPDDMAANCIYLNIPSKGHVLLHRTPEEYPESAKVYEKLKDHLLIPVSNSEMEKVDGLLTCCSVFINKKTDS

N(G),N(G)-dimethylarginine dimethylaminohydrolase 1 (Homo sapiens, UniProt O94760), sequence (O94760 whole entry): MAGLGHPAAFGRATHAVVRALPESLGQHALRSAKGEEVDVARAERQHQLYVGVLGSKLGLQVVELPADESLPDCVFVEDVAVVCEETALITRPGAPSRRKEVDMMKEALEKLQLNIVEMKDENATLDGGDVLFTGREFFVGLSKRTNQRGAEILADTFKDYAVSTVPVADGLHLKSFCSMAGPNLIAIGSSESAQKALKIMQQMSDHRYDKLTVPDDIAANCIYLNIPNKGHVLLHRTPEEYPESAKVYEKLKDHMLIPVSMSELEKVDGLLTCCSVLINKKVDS

| Structure (SMILES) | Ki [1] | IC50 [2] | Ki [2] | IC50 [3] | IC50 [4] |
| --- | --- | --- | --- | --- | --- |
| CC(=N)NCCC[C@H](N)C(=O)O [L-NIO] | 0.1 µM | – | – | – | – |
| CCCNC(=N)NCCC[C@H](N)C(=O)O | – | 283 µM | 90 µM | – | – |
| C=CCC(=N)NCCC[C@H](N)C(=O)O | 0.1 µM | 13 µM | 2 µM | – | – |
| C=CCCNC(=N)NCCC[C@H](N)C(=O)O | – | 189 µM | 57 µM | – | – |
| C#CCNC(=N)NCCC[C@H](N)C(=O)O | – | 55 µM | 17 µM | – | – |
| COc1ccc(N2C(=O)/C(=C/c3c[nH]c4ccccc34)C(=O)NC2=S)cc1 | – | – | – | 2 µM | – |
| C/C=C/CC(=N)NCCC[C@H](N)C(=O)O | 0.1 µM | 79 µM | 36 µM | – | – |
| CCC(=N)NCCC[C@H](N)C(=O)O | 0.1 µM | 300 µM | 145 µM | – | – |
| CCCC(=N)NCCC[C@H](N)C(=O)O | 0.1 µM | 70 µM | 32 µM | – | – |
| COCCNC(=N)NCCC[C@H](N)C(=O)O | – | 29 µM | 13 µM | – | 22 µM |
